The record followed here is US9393308B2, “Micelle structure of nano preparation for diagnosis or treatment of cancer disease and preparation method thereof” (KOREA ADVANCED INSTITUTE OF SCIENCE AND TECHNOLOGY, priority 2013, dated 2016).

In data set [1] the test system is U251MG, which is a human malignant glioma cell. Nature of the data set: Light induced cytotoxicity by light irradiation (590 to 605 nm, 0.1 J/cm^2). Type of data set: cell-based. Particulars: light 590 to 605 nm, 5 mW/cm^2, 0.1 J/cm^2, 12 hours culture. As to the method:
1×10^4 cell/well of U251MG, which is a human malignant glioma cell, were dispensed into a 96-well plate, and a DMEM/F12 medium (100 μL) was injected four times for each sample. 24 hours after culture, the medium was replaced with media respectively including the nanopreparations prepared in Example 1 and Comparative Examples 2 and 3 (sample treatment group) and a medium without the nanopreparation (non-treatment group). The samples were cultured at the dark room condition for 2 hours, washed with phosphate buffered saline (PBS). Then, media was replaced again with media without the nanopreparation. Subsequently, 5 mW/cm^2 of lighting power of light (590 to 605 nm) was irradiated through a light irradiation system (LIS) so that total energy applied to each cell is adjusted to 0.1 J/cm^2 to perform photodynamic diagnosis (photodynamic therapy). Each cell was cultured for 12 hours at the light irradiation condition. The cultured cell was subjected to the same method as Experimental Example 3 to measure light-cytotoxicity. Light induced cytotoxicity and light induced cytotoxicity efficiency were derived from the measured values by using Equations 1 and 2.

Data set [2] has the same test system. Nature of the data set: Cytotoxicity when light is not irradiated (WST-1, dark room condition). The following applies: 10 μM or less, 2 h treatment, 24 h additional culture. Type of data set: cell-based. As to the method: In order to evaluate cytotoxicity, U251MG, which is a human malignant glioma cell, was obtained from American Type Culture Collection (ATCC, Manassas, Va., USA). The obtained cell was cultured in a Dulbecco's Modified Eagle's Medium including the nutrient mixture F-12, 10% fetal bovine serum, an antibiotic (penicillin (100 I.U./mL), and streptomycin (100 μg/mL)), and the 0.1 mM MEM non-essential amino acid solution under conditions of 37° C. and 5% carbon dioxide. 5×10^4 cell/well of the cultured cells were dispensed into a 24-well plate, and DMEM/F12 medium (1 mL) was injected four times for each sample. The medium was removed 24 hours after culture, and media respectively including nanopreparations prepared in Example 1 and Comparative Examples 2 and 3 in concentrations of 1.0, 2.5, 5.0, and 10 μM were injected. In this case, the volume of the nanopreparations included in the injected medium was set not to exceed 1.0% of the total volume of the medium. […] Then, absorbance of the culture medium was measured at the wavelength of 450 nm by using an absorbance microplate reader. In this case, the aforementioned whole procedure was performed at a dark room condition, and cell viability was derived from the measured normalized absorbance.

Regarding `Cc1cc(O)c2c(=O)c3c(O)cc(O)c4c5c(O)cc(O)c6c(=O)c7c(O)cc(C)c8c1c2c(c34)c(c78)c65` [Comparative Example 2, Hypericin], the “light toxicity (light induced cytotoxicity efficiency)” value in data set [1] was 1.00±0.04 % mg/A.U. mL. For the same molecule, in data set [2], the “toxicity to cells when light is not irradiated” value is “do not have toxicity to cells”.
